Experimental data published in US20050282908A1, “Substituted aminopropoxyaryl derivatives useful as agonists for LXR” (SmithKline Beecham Corporation, priority 2000, published 2005).

Assays:
[1] = molecular target: T1, human LXRβ ligand binding domain (Homo sapiens, UniProt P55055); assay: Assay for LXRβ Activity (HTRF, SRC-1 peptide recruitment); assay type: biochemical; settings: 1 μM; over a background reading of 10000 fluorescence units
T1 construct: made in house; host or cells: E. coli BL21 (DE3), vector pRSETa
T1 sequence (P55055 184-460 limits assumed): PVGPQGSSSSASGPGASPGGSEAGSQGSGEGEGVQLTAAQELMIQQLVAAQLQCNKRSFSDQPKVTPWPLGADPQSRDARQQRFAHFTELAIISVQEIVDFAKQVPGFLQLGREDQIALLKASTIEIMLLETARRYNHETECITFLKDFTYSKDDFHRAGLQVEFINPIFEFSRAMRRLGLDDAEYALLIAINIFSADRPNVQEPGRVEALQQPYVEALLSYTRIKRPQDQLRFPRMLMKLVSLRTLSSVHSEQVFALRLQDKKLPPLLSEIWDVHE
T1 sequence (Q15788 676-700 partner limits assumed): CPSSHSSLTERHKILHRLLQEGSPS
Method: A modified polyhistidine tag (MKKGHHHHHHG) (SEQ ID No. 1) was fused in frame to the human LXRβ ligand binding domain (amino acids 185-461 of Genbank accession number U07132) and subcloned into the expression vector pRSETa (Invitrogen) under the control of an IPTG inducible T7 promoter. The human LXRβ ligand binding domain was expressed in E. coli strain BL21 (DE3). Ten-liter fermentation batches were grown in Rich PO4 media with 0.1 mg/mL Ampicillin at 25° C. for 12 hours, cooled to 9° C. and held at that temperature for 36 hours to a density of OD600=14. At this cell density, 0.25 mM IPTG was added and induction proceeded for 24 hours at 9° C., to a final OD600=16. Cells were harvested by centrifugation (20 minutes, 3500 g, 4° C.), and concentrated cell slurries were stored in PBS at −80° C.
Typically 25-50 g of cell paste is resuspended in 250-500 mL TBS, pH 8.0 (25 mM Tris, 150 mM NaCl). Cells are lysed by passing 3 times through an APV Rannie MINI-lab homogenizer and cell debris is removed by centrifugation (30 minutes, 20,000 g, 4° C.). […] After washing to baseline absorbance with equilibration buffer, the column is washed with approximately one column volume of TBS pH […] containing 95 mM imidazole. […] After washing to baseline absorbance with the dilution buffer the protein is eluted with a gradient from 50-500 mM NaCl. […]

[2] = molecular target: T2, LXRα ligand binding domain (Homo sapiens, UniProt Q13133); assay: Assay for LXRα Activity (HTRF, run as Example 1); assay type: biochemical; settings: 1 μM; over a background reading of 10000 fluorescence units
T2 construct: His tag; made in house
T2 sequence (Q13133 183-447): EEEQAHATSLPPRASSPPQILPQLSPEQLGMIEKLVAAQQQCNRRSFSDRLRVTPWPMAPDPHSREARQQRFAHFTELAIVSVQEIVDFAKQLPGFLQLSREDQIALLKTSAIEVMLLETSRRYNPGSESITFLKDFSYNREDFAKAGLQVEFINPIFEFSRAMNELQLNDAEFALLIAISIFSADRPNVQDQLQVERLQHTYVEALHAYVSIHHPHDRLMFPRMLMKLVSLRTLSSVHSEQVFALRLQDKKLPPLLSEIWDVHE
T2 sequence (Q15788 676-700 partner): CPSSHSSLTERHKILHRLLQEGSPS
Method: The assay for LXRα was run according to the procedures of Example 1, above using his-tagged LXRα ligand binding domain (amino acids 183-447 of Genbank accession number U22662, with the 14th amino acid corrected to A from R).
In this assay 1 μM 24(S),25-epoxycholesterol gave a reading of 20000 fluorescence units over a background reading of 10000 fluorescence units.

With `C[C@H](CC[C@@H]1OC1(C)C)[C@H]1CC[C@H]2[C@@H]3CC=C4C[C@@H](O)CC[C@]4(C)[C@H]3CC[C@]12C` [24(S),25-epoxycholesterol] as the compound, how does the reading [1] read?
The reading was 20000 fluorescence units.

And the reading [2]?
The reading was 20000 fluorescence units.
